Test results published in patent publication US20250101039A1, “RIFAMYCIN DERIVATIVES FOR THE TREATMENT OF DISEASES” (priority 2022, published 2025).
Values after ≈ are worked out from the molar mass of the structure shown. Read-outs that look alike come from different tables or passages of the source.

Key:
S. aureus = experiment: MIC by broth microdilution, S. aureus; format: cell-based, Staphylococcus aureus; settings: for MIC S. aureus: cation adjusted Mueller Hinton broth, 35° C. 20 hours
A. baumannii = experiment: MIC by broth microdilution, A. baumannii (WT); format: cell-based, Acinetobacter baumannii
[1] = RPMI medium supplemented with 10% FCS, 35° C. 20 hours

Structure (SMILES)	MIC S. aureus (S. aureus) [µg/mL]	MIC A. baumannii (A. baumannii; [1]) [µg/mL]	MIC (S. aureus; Staphylococcus aureus, 20 h, read-out: MIC S. aureus, cation adjusted Mueller Hinton broth, 35° C. 20 hours) [µg/mL]	MIC A. baumannii (A. baumannii) [µg/mL]
COC1C=COC2(C)Oc3c(C)c(O)c4c(c3C2=O)C2=NC3(NC2=C(NC(=O)C(C)=CC=CC(C)C(O)C(C)C(O)C(C)C(OC(C)=O)C1C)C4=O)C1CCC3CN(C)C1 (mixture of isomers) [1 (A + B)]	0.016	0.25	–	–
COC1C=COC2(C)Oc3c(C)c(O)c4c(c3C2=O)C2=NC3(NC2=C(NC(=O)C(C)=CC=CC(C)C(O)C(C)C(O)C(C)C(OC(C)=O)C1C)C4=O)C1CCC3CN(C(C)(C)C)C1 (mixture of isomers) [2 (A + B)]	0.008	2	–	–
COC1C=COC2(C)Oc3c(C)c(O)c4c(c3C2=O)C2=NC3(NC2=C(NC(=O)C(C)=CC=CC(C)C(O)C(C)C(O)C(C)C(OC(C)=O)C1C)C4=O)C1CC3CN(C)C1 (mixture of isomers) [5 (A + B)]	0.125	8	–	–
COC1C=COC2(C)Oc3c(C)c(O)c4c(c3C2=O)C2=NC3(CC5CCC(C3)N5C3CCCC3)NC2=C(NC(=O)C(C)=CC=CC(C)C(O)C(C)C(O)C(C)C(OC(C)=O)C1C)C4=O (mixture of isomers) [15 (A + B)]	0.03	0.25	–	–
CO[C@H]1/C=C/O[C@@]2(C)Oc3c(C)c(O)c4c(c3C2=O)C2=NC3(CCCNCC3)NC2=C(NC(=O)/C(C)=C\C=C\[C@H](C)[C@H](O)[C@@H](C)[C@@H](O)[C@@H](C)[C@H](OC(C)=O)[C@@H]1C)C4=O (single isomer, unassigned) [Compound 6A]	0.016 (≈ 0.0199 µM)	0.125 (≈ 0.155 µM)	–	–
CO[C@H]1/C=C/O[C@@]2(C)Oc3c(C)c(O)c4c(c3C2=O)C2=NC3(CCCNCC3)NC2=C(NC(=O)/C(C)=C\C=C\[C@H](C)[C@H](O)[C@@H](C)[C@@H](O)[C@@H](C)[C@H](OC(C)=O)[C@@H]1C)C4=O (single isomer, unassigned) [Compound 6B]	16 (≈ 19.9 µM)	125 (≈ 155 µM)	–	–
CO[C@H]1/C=C/O[C@@]2(C)Oc3c(C)c(O)c4c(c3C2=O)C2=NC3(CCCN(C)CC3)NC2=C(NC(=O)/C(C)=C\C=C\[C@H](C)[C@H](O)[C@@H](C)[C@@H](O)[C@@H](C)[C@H](OC(C)=O)[C@@H]1C)C4=O (single isomer, unassigned) [Compound 7B]	0.008 (≈ 0.00977 µM)	0.125 (≈ 0.153 µM)	–	–
CO[C@H]1/C=C/O[C@@]2(C)Oc3c(C)c(O)c4c(c3C2=O)C2=NC3(CC5CCC(C3)N5)NC2=C(NC(=O)/C(C)=C\C=C\[C@H](C)[C@H](O)[C@@H](C)[C@@H](O)[C@@H](C)[C@H](OC(C)=O)[C@@H]1C)C4=O (single isomer, unassigned) [Compound 12A]	0.06 (≈ 0.0734 µM)	0.06 (≈ 0.0734 µM)	–	–
CO[C@H]1/C=C/O[C@@]2(C)Oc3c(C)c(O)c4c(c3C2=O)C2=NC3(CC5CCC(C3)N5C)NC2=C(NC(=O)/C(C)=C\C=C\[C@H](C)[C@H](O)[C@@H](C)[C@@H](O)[C@@H](C)[C@H](OC(C)=O)[C@@H]1C)C4=O (single isomer, unassigned) [Compound 13A]	–	0.03 (≈ 0.0361 µM)	0.03 (≈ 0.0361 µM)	–
CO[C@H]1/C=C/O[C@@]2(C)Oc3c(C)c(O)c4c(c3C2=O)C2=NC3(CC5CCC(C3)N5C(C)C)NC2=C(NC(=O)/C(C)=C\C=C\[C@H](C)[C@H](O)[C@@H](C)[C@@H](O)[C@@H](C)[C@H](OC(C)=O)[C@@H]1C)C4=O (single isomer, unassigned) [Compound 14A]	0.016 (≈ 0.0186 µM)	0.25 (≈ 0.291 µM)	–	–
CO[C@H]1/C=C/O[C@@]2(C)Oc3c(C)c(O)c4c(c3C2=O)C2=NC3(CC5CCC(C3)N5C(C)C)NC2=C(NC(=O)/C(C)=C\C=C\[C@H](C)[C@H](O)[C@@H](C)[C@@H](O)[C@@H](C)[C@H](OC(C)=O)[C@@H]1C)C4=O (single isomer, unassigned) [Compound 14B]	0.008 (≈ 0.00931 µM)	0.016 (≈ 0.0186 µM)	–	–
CCCN1C2CCC1CC1(C2)N=C2C(=C3NC(=O)/C(C)=C\C=C\[C@H](C)[C@H](O)[C@@H](C)[C@@H](O)[C@@H](C)[C@H](OC(C)=O)[C@H](C)[C@@H](OC)/C=C/O[C@@]4(C)Oc5c(C)c(O)c(c2c5C4=O)C3=O)N1 (single isomer, unassigned) [Compound 20A]	0.008 (≈ 0.00931 µM)	0.25 (≈ 0.291 µM)	–	–
CO[C@H]1/C=C/O[C@@]2(C)Oc3c(C)c(O)c4c(c3C2=O)C2=NC3(NC2=C(NC(=O)/C(C)=C\C=C\[C@H](C)[C@H](O)[C@@H](C)[C@@H](O)[C@@H](C)[C@H](OC(C)=O)[C@@H]1C)C4=O)C1CC2CC3CN(C2)C1 (some centres unmarked) [Compound 3A]	0.008 (≈ 0.00949 µM)	–	–	0.25 (≈ 0.297 µM)
CCCN1CC2CN(CCC)CC(C1)C21N=C2C(=C3NC(=O)/C(C)=C\C=C\[C@H](C)[C@H](O)[C@@H](C)[C@@H](O)[C@@H](C)[C@H](OC(C)=O)[C@H](C)[C@@H](OC)/C=C/O[C@@]4(C)Oc5c(C)c(O)c(c2c5C4=O)C3=O)N1 (some centres unmarked) [Compound 4]	0.016 (≈ 0.0175 µM)	0.03 (≈ 0.0327 µM)	–	–
CO[C@H]1/C=C/O[C@@]2(C)Oc3c(C)c(O)c4c(c3C2=O)C2=NC3(NC2=C(NC(=O)/C(C)=C\C=C\[C@H](C)[C@H](O)[C@@H](C)[C@@H](O)[C@@H](C)[C@H](OC(C)=O)[C@@H]1C)C4=O)C1CNCC3CNC1 (some centres unmarked) [Compound 17]	0.008 (≈ 0.00962 µM)	0.5 (≈ 0.601 µM)	–	–
CO[C@H]1/C=C/O[C@@]2(C)Oc3c(C)c(O)c4c(c3C2=O)C2=NC3(NC2=C(NC(=O)/C(C)=C\C=C\[C@H](C)[C@H](O)[C@@H](C)[C@@H](O)[C@@H](C)[C@H](OC(C)=O)[C@@H]1C)C4=O)C1CN2CC3CN(C1)C2 (some centres unmarked) [Compound 19]	0.004 (≈ 0.00474 µM)	1 (≈ 1.18 µM)	–	–
